# Experimental data published in US20020049157A1, “Use of proteasome inhibitors for treating cancer, inflammation, autoimmune disease, graft rejection and septic shock” (priority 1998, published 2002).
# Test system: Jurkat cells
# Test: Jurkat cell viability by trypan blue exclusion
# Format: cell-based
# Conditions: 6 μM LAC
# Experimental: Tonsillar T cells (A, B, and D) and Jurkat cells (C and E) were treated with LAC (10 μM for T cells and 6 μM for Jurkat cells). LAC was added at the beginning of the culture or 40 h after T cell activation as indicated. The cells were harvested at the time points as shown. They were evaluated for their viability with trypan blue exclusion (A, B, and C), and for their mode of cell death according to DNA fragmentation (D and E). The effect of LAC on Jurkat cells was quite similar to that on the activated T cells.
compound,measurement,setting,value
"CC(=O)N[C@@H](CSC(=O)[C@]1([C@@H](O)C(C)C)NC(=O)[C@H](C)[C@@H]1O)C(=O)O [LAC, lactacystin]",trypan blue positive cells,24 h culture,about 60%
same,cell death (trypan blue),less than 8 h exposure,did not induce apparent Jurkat cell death
